From article PMC7617869, “Molecular glues that inhibit deubiquitylase activity and inflammatory signaling” (Nature Structural & Molecular Biology, 2025)
“And” between values parts separate entries of the source, which are not always exact repeats. Identical values can stand only once.

What was measured:
BRISC (FL) [1] = target: T1, BRISC (FL) (Homo sapiens, UniProt P46736+Q15018+Q9NXR7); assay: In-gel deubiquitylation assay, TAMRA-labeled K63-tetraubiquitin, BRISC; format: biochemical; conditions: 10 μM or 100 μM inhibitor
T1 construct: full-length BRISC (FL), ARISC (FL); made in house; host or cells: Spodoptera frugiperda Sf9 insect cells (MultiBac)
Experimental: (§1) The inhibitor capzimin (Merck) was diluted in 1 mM DTT and incubated for 30 min at room temperature to reduce disulfide bonds required for inhibitor activity. […] DUBs were incubated with 750 nM TAMRA-labeled K63-tetraubiquitin (LifeSensors, SI6304T) for 10 min at 30 °C. Reactions were quenched by adding 2.5 μl of 4× SDS–PAGE loading dye (240 mM Tris-HCl pH 6.8, 40% v/v glycerol, 8% w/v SDS, 0.04% w/v bromophenol blue and 5% v/v β-mercaptoethanol). The samples were resolved on 4–12% NuPAGE Bis–Tris gels (Thermo Fisher Scientific). Gels were scanned using an iBright FL 1500 (Thermo Fisher Scientific) (excitation, 515–545 nm; emission, 568–617 nm; exposure, 500 ms).

BRISC (FL) / BRISCΔNΔC = target: T2, BRISC (FL) / BRISCΔNΔC (Homo sapiens, UniProt P46736+Q15018+Q9NXR7); assay: Mass photometry of BRISC dimer formation; conditions: for Dimer fraction: 50 nM BRISCΔNΔC
T2 construct: BRISCΔNΔC (MERIT40ΔN, Abraxas 2ΔC); made in house; host or cells: Spodoptera frugiperda Sf9 insect cells (MultiBac)
Experimental: Immediately before mass photometry measurement, the BRISC–inhibitor mix was diluted in 25 mM HEPES pH 7.5, 150 mM NaCl and 1 mM TCEP to 10 nM BRISC ([…]). Then, 12 μl of the diluted sample was used for the final mass photometry measurement, following autofocus stabilization. […] Next, 0.5 μl of inhibitor was mixed with 19.5 μl of 50 nM BRISCΔNΔC (2.5% v/v DMSO) and incubated at room temperature for 15 min. The BRISC–inhibitor mix was used directly for mass photometry measurement using buffer-free autofocus stabilization.
Microscope coverslips were prepared according to an established protocol. Experiments were performed using a OneMP mass photometer (Refeyn). Videos were recorded for 60 s using AcquireMP (Refeyn) and processed using DiscoverMP (Refeyn). Mass photometry image processing was previously described. Briefly, contrast-to-mass (C2M) calibration was performed using protein standards (66–669 kDa) diluted in buffer (25 mM HEPES pH 7.5, 150 mM NaCl and 1 mM TCEP). […] The mass distribution from each run was in the form of a histogram, where the count refers to each landing event and a Gaussian sum is fitted to the data. The relative amount of each species was calculated as the area of each Gaussian, where σ refers to the s.d. of the fitted Gaussian. The dimer fraction refers to the percentage of the total counts corresponding to the 564-kDa BRISCΔNΔC dimer complex. Curves and half-maximal effective concentration values were fitted and calculated using the GraphPad Prism (version 9.0) built-in dose–response equation for concentration of agonist versus response (variable slope).

ARISC (FL) = target: T3, ARISC (FL) (Homo sapiens, UniProt P46736+Q6UWZ7+Q9NXR7); assay: In-gel deubiquitylation assay, TAMRA-labeled K63-tetraubiquitin, ARISC; format: biochemical; conditions: 10 μM or 100 μM inhibitor
T3 construct: full-length BRISC (FL), ARISC (FL); made in house; host or cells: Spodoptera frugiperda Sf9 insect cells (MultiBac)
Experimental: as §1

BRISC = target: T4, BRISC (Homo sapiens, UniProt P46736+Q15018+Q9NXR7); assay: Michaelis–Menten analysis of BRISC inhibition; format: biochemical
T4 construct: made in house; host or cells: Spodoptera frugiperda (Sf9) insect cells, MultiBac
Experimental: IQF assays were performed in DUB reaction buffer containing 50 mM HEPES–NaOH pH 7.0, 100 mM NaCl, 0.1 mg ml^−1 BSA, 1 mM DTT and 0.03% v/v Brij-35. […] The final concentration of BRISC WT, all BRISC mutants, HsBRISCΔLoop, MmBRISC and DrBRISCΔNΔC was 1 nM. Other enzymes were tested at the following concentrations: 5 nM ARISC (FL), 10 nM CfBRISCΔNΔC, 250 nM AMSH* (ref. [43]), 500 nM USP2 and 1 μM trypsin (Sigma, 9002-07-7). For Michaelis–Menten experiments, 1 nM BRISC with 0–1 μM IQF K63-linked diubiquitin substrate was used. Michaelis–Menten analyses and Lineweaver–Burk plots were calculated using GraphPad Prism (version 9.0).

BRISC (FL) [2] = target: T1, BRISC (FL); assay: Native MS of BRISC with inhibitor; conditions: 10 μM BRISC, 1 mM inhibitor
Experimental: Samples were buffer-exchanged into 500 mM ammonium acetate using Zeba Spin (7-kDa molecular weight cutoff) desalting columns (Thermo Fisher Scientific). Samples were analyzed by nanoelectrospray ionization MS using a quadrupole orbitrap MS (Q-Exactive UHMR, Thermo Fisher Scientific) using gold–palladium-coated nanospray tips prepared in-house. The MS instrument was operated in positive ion mode using a capillary voltage of 1.5 kV, capillary temperature of 250 °C and S-lens radiofrequency of 200 V. In-source trapping was used with a desolvation voltage of −200 V for 4 μs. Extended trapping was not used. The quadrupole mass range was 2,000–15,000 m/z. Nitrogen gas was used in the higher-energy collisional dissociation cell with a trap gas pressure setting of 5. Orbitrap resolution was 6,250 and detector m/z optimization was low. Five microscans were averaged and an automatic gain control target of 2 × 10^5 was used. Mass calibration was performed by a separate injection of sodium iodide at a concentration of 2 μg μl^−1. Data processing was performed using QualBrowser (version 4.2.28.14) and deconvoluted using UniDec[82].

SMILES: O=C(NC1CCNCC1)c1nn(C(=O)c2c(Cl)cccc2Cl)cc1NC(=O)c1c(Cl)cccc1Cl [JMS-175-2]
- inhibition of BRISC cleavage of K63-linked tetraubiquitin (BRISC (FL) [1]): inhibit
- dimer formation with increasing inhibitor concentration (mass photometry) (BRISC (FL) / BRISCΔNΔC): dose-dependent increase in dimer formation
- Dimer fraction (BRISC (FL) / BRISCΔNΔC; [Inhibitor (μM)] 5000): 0.32 and 0.27 and 0.22
- Dimer fraction (BRISC (FL) / BRISCΔNΔC; [Inhibitor (μM)] 10000): 0.35 and 0.32 and 0.21
- inhibition of ARISC activity against tetraubiquitin (ARISC (FL)): did not inhibit
- Initial velocity (FU/min) (BRISC; di-Ub-TAMRA 31.2 nM, inhibitor 48 nM): 124.7 FU/min and 137.4 FU/min and 146.6 FU/min
- Initial velocity (FU/min) (BRISC; di-Ub-TAMRA 31.2 nM, inhibitor 195 nM): 137.4 FU/min and 132.5 FU/min and 144.8 FU/min
- Initial velocity (FU/min) (BRISC; di-Ub-TAMRA 31.2 nM, inhibitor 781 nM): 114 FU/min and 123.2 FU/min and 122.2 FU/min
- Initial velocity (FU/min) (BRISC; di-Ub-TAMRA 31.2 nM, inhibitor 3.12 μM): 80.48 FU/min and 77.42 FU/min and 88.2 FU/min
- Initial velocity (FU/min) (BRISC; di-Ub-TAMRA 31.2 nM, inhibitor 12.5 μM): 62.2 FU/min and 65.87 FU/min and 55.25 FU/min
- Initial velocity (FU/min) (BRISC; di-Ub-TAMRA 31.2 nM, inhibitor 50 μM): 31.39 FU/min and 49.47 FU/min and 41.04 FU/min
- Initial velocity (FU/min) (BRISC; di-Ub-TAMRA 62.5 nM, inhibitor 48 nM): 222.1 FU/min and 242.3 FU/min and 243.8 FU/min
- Initial velocity (FU/min) (BRISC; di-Ub-TAMRA 62.5 nM, inhibitor 195 nM): 205.5 FU/min and 232 FU/min and 265.7 FU/min
- Initial velocity (FU/min) (BRISC; di-Ub-TAMRA 62.5 nM, inhibitor 781 nM): 172.4 FU/min and 226.1 FU/min and 228.4 FU/min
- Initial velocity (FU/min) (BRISC; di-Ub-TAMRA 62.5 nM, inhibitor 3.12 μM): 160.2 FU/min and 117.4 FU/min and 160.5 FU/min
- Initial velocity (FU/min) (BRISC; di-Ub-TAMRA 62.5 nM, inhibitor 12.5 μM): 80.26 FU/min and 123.7 FU/min and 100.7 FU/min
- Initial velocity (FU/min) (BRISC; di-Ub-TAMRA 62.5 nM, inhibitor 50 μM): 43.48 FU/min and 66.23 FU/min and 64.63 FU/min
- Initial velocity (FU/min) (BRISC; di-Ub-TAMRA 125 nM, inhibitor 48 nM): 476.9 FU/min and 540.8 FU/min and 503.9 FU/min
- Initial velocity (FU/min) (BRISC; di-Ub-TAMRA 125 nM, inhibitor 195 nM): 474.4 FU/min and 538.4 FU/min and 481.2 FU/min
- Initial velocity (FU/min) (BRISC; di-Ub-TAMRA 125 nM, inhibitor 781 nM): 402.8 FU/min and 468.4 FU/min and 474 FU/min
- Initial velocity (FU/min) (BRISC; di-Ub-TAMRA 125 nM, inhibitor 3.12 μM): 310.9 FU/min and 277.7 FU/min and 256.8 FU/min
- Initial velocity (FU/min) (BRISC; di-Ub-TAMRA 125 nM, inhibitor 12.5 μM): 183.3 FU/min and 175.6 FU/min and 208.5 FU/min
- Initial velocity (FU/min) (BRISC; di-Ub-TAMRA 125 nM, inhibitor 50 μM): 67.12 FU/min and 88.75 FU/min and 84.05 FU/min
- Initial velocity (FU/min) (BRISC; di-Ub-TAMRA 250 nM, inhibitor 48 nM): 886 FU/min and 905.7 FU/min and 906.9 FU/min
- Initial velocity (FU/min) (BRISC; di-Ub-TAMRA 250 nM, inhibitor 195 nM): 866.4 FU/min and 900.9 FU/min and 960.9 FU/min
- Initial velocity (FU/min) (BRISC; di-Ub-TAMRA 250 nM, inhibitor 781 nM): 740.9 FU/min and 834.7 FU/min and 869 FU/min
- Initial velocity (FU/min) (BRISC; di-Ub-TAMRA 250 nM, inhibitor 3.12 μM): 573.6 FU/min and 456.6 FU/min and 483.6 FU/min
- Initial velocity (FU/min) (BRISC; di-Ub-TAMRA 250 nM, inhibitor 12.5 μM): 283.5 FU/min and 316 FU/min and 354.2 FU/min
- Initial velocity (FU/min) (BRISC; di-Ub-TAMRA 250 nM, inhibitor 50 μM): 119.1 FU/min and 114.6 FU/min and 160 FU/min
- Initial velocity (FU/min) (BRISC; di-Ub-TAMRA 500 nM, inhibitor 195 nM): 1677 FU/min and 3345 FU/min and 1765 FU/min
- Initial velocity (FU/min) (BRISC; di-Ub-TAMRA 500 nM, inhibitor 3.12 μM): 1143 FU/min and 881.4 FU/min and 1578 FU/min
- Initial velocity (FU/min) (BRISC; di-Ub-TAMRA 500 nM, inhibitor 12.5 μM): 579 FU/min and 1146 FU/min and 683.3 FU/min
- Initial velocity (FU/min) (BRISC; di-Ub-TAMRA 1000 nM, inhibitor 48 nM): 3019 FU/min and 3362 FU/min and 3486 FU/min
- Initial velocity (FU/min) (BRISC; di-Ub-TAMRA 1000 nM, inhibitor 195 nM): 3093 FU/min and 3236 FU/min and 3210 FU/min
- Initial velocity (FU/min) (BRISC; di-Ub-TAMRA 1000 nM, inhibitor 781 nM): 2371 FU/min and 2828 FU/min and 2787 FU/min
- Initial velocity (FU/min) (BRISC; di-Ub-TAMRA 1000 nM, inhibitor 3.12 μM): 1731 FU/min and 1418 FU/min and 1905 FU/min
- Initial velocity (FU/min) (BRISC; di-Ub-TAMRA 1000 nM, inhibitor 12.5 μM): 1009 FU/min and 1193 FU/min and 1032 FU/min
- Initial velocity (FU/min) (BRISC; di-Ub-TAMRA 1000 nM, inhibitor 50 μM): 371.3 FU/min and 640.2 FU/min and 667.9 FU/min
- mode of inhibition (BRISC; enzyme activity at different substrate concentrations): not competitive inhibitors
- BRISC dimers detected by native MS (BRISC (FL) [2]): BRISC dimers with 4:4:4:4 stoichiometry were detected
